Tested on in one assay: not listed separately
Nature of the assay: Binding affinity towards low-affinity site of Atrial natriuretic peptide receptor 1 of rabbit adrenal membrane.
Details: not given
Format: tissue-based.
Consider `CC[C@H](C)[C@@H]1NC(=O)[C@@H](CCCN=C(N)N)NC(=O)CNC(=O)CNC(=O)[C@@H](Cc2ccccc2)N(C)C(=O)C(C)NC(=O)[C@H](NC(=O)[C@H](CO)NC(=O)[C@@H](N)CO)CSSC[C@H](C(=O)N[C@H](Cc2ccccc2)C(=O)N[C@H](CCCN=C(N)N)C(=O)O)NC(=O)[C@@H]([C@@H](C)CC)NC(=O)[C@H](CCCN=C(N)N)NC(=O)[C@@H](CC(=O)O)NC1=O` (stereo in doubt), for which the KL stood at 290 nM.
The same measure, in the same setting: as for `CC[C@H](C)[C@@H]1NC(=O)[C@H](CCCN=C(N)N)NC(=O)[C@@H](CC(=O)O)NC(=O)[C@H]([C@@H](C)CC)NC(=O)[C@@H](CCCN=C(N)N)NC(=O)CNC(=O)CNC(=O)[C@@H](Cc2ccccc2)NC(=O)CNC(=O)[C@@H](NC(=O)[C@H](CO)NC(=O)[C@@H](N)CO)CSSC[C@@H](C(=O)N[C@H](Cc2ccccc2)C(=O)N[C@@H](CCCCN=C(N)N)C(=O)O)NC1=O`, the figure is 320 nM; as for `CC[C@H](C)[C@@H]1NC(=O)[C@H](CCCN=C(N)N)NC(=O)[C@@H](CC(=O)O)NC(=O)[C@H]([C@@H](C)CC)NC(=O)[C@@H](CCCN=C(N)N)NC(=O)CNC(=O)CNC(=O)[C@@H](Cc2ccccc2)NC(=O)CNC(=O)[C@@H](NC(=O)[C@H](CO)NC(=O)[C@@H](N)CO)CSSC[C@@H](C(=O)N[C@H](Cc2ccccc2)C(=O)N[C@@H](CCCCN)C(=O)O)NC1=O`, 5900 nM; as for `CC[C@H](C)[C@@H]1NC(=O)[C@@H](CCCN=C(N)N)NC(=O)CNC(=O)CNC(=O)[C@@H](Cc2ccccc2)NC(=O)[C@@H](C)NC(=O)[C@H](NC(=O)[C@H](CO)NC(=O)[C@@H](N)CO)CSSC[C@H](C(=O)N[C@H](Cc2ccccc2)C(=O)N[C@H](CCCN=C(N)N)C(=O)O)NC(=O)[C@@H]([C@@H](C)CC)NC(=O)[C@H](CCCN=C(N)N)NC(=O)CNC1=O`, 740 nM.
On the same count and under the same terms, then `CC[C@H](C)[C@@H]1NC(=O)[C@@H](CCCN=C(N)N)NC(=O)CNC(=O)CNC(=O)[C@@H](C2CCCCC2)NC(=O)[C@H](NC(=O)[C@H](N)CCCN=C(N)N)CSSC[C@H](C(N)=O)NC(=O)[C@@H](CCCN=C(N)N)NC(=O)[C@@H]2Cc3ccccc3CN2C(=O)[C@@H]([C@@H](C)CC)NC(=O)[C@H](CCCN=C(N)N)NC(=O)[C@@H](CC(=O)O)NC1=O`, with 270 nM; and `CC[C@H](C)[C@@H]1NC(=O)[C@@H](CCCN=C(N)N)NC(=O)CNC(=O)CNC(=O)[C@@H](Cc2ccccc2)NC(=O)CNC(=O)[C@H](NC(=O)[C@H](CO)NC(=O)[C@@H](N)CO)CSSC[C@H](C(=O)N[C@H](Cc2ccccc2)C(=O)NCC(=O)O)NC(=O)[C@@H]([C@@H](C)CC)NC(=O)[C@H](CCCN=C(N)N)NC(=O)[C@@H](CC(=O)O)NC1=O`, with 3100 nM.
The same measure, in the same setting: as for `CC[C@H](C)[C@@H]1NC(=O)[C@@H](CCCN=C(N)N)NC(=O)Cc2cccc(c2)NC(=O)Cc2cccc(c2)NC(=O)[C@@H](Cc2ccccc2)NC(=O)C(C)NC(=O)[C@H](NC(=O)[C@H](CO)NC(=O)[C@@H](N)CO)CSSC[C@H](C(=O)N[C@H](Cc2ccccc2)C(=O)N[C@H](CCCN=C(N)N)C(=O)O)NC(=O)[C@@H]([C@@H](C)CC)NC(=O)[C@H](CCCN=C(N)N)NC(=O)[C@@H](CC(=O)O)NC1=O` (stereo in doubt), the figure is 810 nM.
For `CC[C@H](C)[C@@H]1NC(=O)[C@@H](CCCN=C(N)N)NC(=O)Cc2ccc(cc2)NC(=O)Cc2ccc(cc2)NC(=O)[C@@H](Cc2ccccc2)NC(=O)C(C)NC(=O)[C@H](NC(=O)[C@H](CO)NC(=O)[C@@H](N)CO)CSSC[C@H](C(=O)N[C@H](Cc2ccccc2)C(=O)N[C@H](CCCN=C(N)N)C(=O)O)NC(=O)[C@@H]([C@@H](C)CC)NC(=O)[C@H](CCCN=C(N)N)NC(=O)[C@@H](CC(=O)O)NC1=O` (stereo in doubt), the KL is 1400 nM.
Same read-out and setting: then `CC[C@H](C)[C@@H]1NC(=O)[C@@H](CCCN=C(N)N)NC(=O)CNC(=O)CNC(=O)[C@@H](Cc2ccccc2)NC(=O)CNC(=O)[C@H](NC(=O)[C@H](CO)NC(=O)[C@@H](N)CO)CSSC[C@H](C(=O)N[C@H](Cc2ccccc2)C(=O)N[C@H](CCCN=C(N)N)C(=O)O)NC(=O)[C@@H]([C@@H](C)CC)NC(=O)[C@H](CCCN=C(N)N)NC(=O)[C@@H](CC(=O)OC)NC1=O`, with 1400 nM; and `CC[C@H](C)[C@@H]1NC(=O)[C@@H](CCCN=C(N)N)NC(=O)CNC(=O)CNC(=O)[C@@H](Cc2ccc(O)cc2)NC(=O)C(C)NC(=O)[C@H](NC(=O)[C@H](CO)NC(=O)[C@@H](N)CO)CSSC[C@H](C(=O)N[C@H](Cc2ccccc2)C(=O)N[C@H](CCCN=C(N)N)C(=O)O)NC(=O)[C@@H]([C@@H](C)CC)NC(=O)[C@H](CCCN=C(N)N)NC(=O)[C@@H](CC(=O)O)NC1=O` (stereo in doubt), with 10000 nM.
The same measure, in the same setting: then `CC[C@H](C)[C@@H]1NC(=O)[C@@H](CCCN=C(N)N)NC(=O)CNC(=O)CNC(=O)[C@@H](Cc2ccccc2)NC(=O)[C@@H](C)NC(=O)[C@H](NC(=O)[C@H](CO)NC(=O)[C@@H](N)CO)CSSC[C@H](C(=O)N[C@H](Cc2ccccc2)C(=O)N[C@H](CCCN=C(N)N)C(=O)O)NC(=O)[C@@H]([C@@H](C)CC)NC(=O)[C@H](CCCN=C(N)N)NC(=O)[C@@H](CO)NC1=O`, with 510 nM.

The subject of another assay is Atrial natriuretic peptide receptor 1 (Oryctolagus cuniculus). Nature of the assay: Binding affinity for low-affinity site Atrial natriuretic peptide receptor 1 of rabbit adrenal membrane. As to conditions: Adrenal gland.
`CC[C@H](C)[C@@H]1NC(=O)[C@@H](CCCN=C(N)N)NC(=O)CNC(=O)CNC(=O)[C@@H](C2CCCCC2)NC(=O)[C@H](NC(=O)[C@H](N)CCCN=C(N)N)CSSC[C@H](C(N)=O)NC(=O)[C@@H](CCCN=C(N)N)NC(=O)[C@H](Cc2ccccc2)NC(=O)[C@@H]([C@@H](C)CC)NC(=O)[C@H](CCCN=C(N)N)NC(=O)CNC1=O` returned a KL of 260 nM.
On the same count and under the same terms, then `CC[C@H](C)[C@@H]1NC(=O)[C@@H](CCCN=C(N)N)NC(=O)CNC(=O)CNC(=O)[C@@H](C2CCCCC2)NC(=O)CCSSC[C@H](C(N)=O)NC(=O)[C@@H](CCCN=C(N)N)NC(=O)[C@@H](Cc2ccccc2)NC(=O)[C@@H]([C@@H](C)CC)NC(=O)[C@H](CCCN=C(N)N)NC(=O)[C@@H](CC(=O)O)NC1=O`, with 6500 nM; and `CC[C@H](C)[C@@H]1NC(=O)[C@@H](CCCN=C(N)N)NC(=O)CNC(=O)CNC(=O)[C@@H](C2CCCCC2)NC(=O)[C@H](NC(=O)[C@H](N)CCCN=C(N)N)CSSC[C@H](C(N)=O)NC(=O)[C@@H](C)NC(=O)CNC(=O)[C@@H]([C@@H](C)CC)NC(=O)[C@H](CCCN=C(N)N)NC(=O)[C@@H](CC(=O)O)NC1=O`, with 1200 nM; and `CC[C@H](C)[C@@H]1NC(=O)[C@H]2CCCCNC(=O)C[C@@H](NC1=O)C(=O)N[C@@H](CCCN=C(N)N)C(=O)N[C@H]([C@@H](C)CC)C(=O)N[C@@H](Cc1ccccc1)C(=O)N[C@H](CCCN=C(N)N)C(=O)N[C@@H](C(N)=O)CSSC[C@@H](NC(=O)[C@H](N)CCCN=C(N)N)C(=O)N[C@H](C1CCCCC1)C(=O)NCC(=O)NCC(=O)N2`, with 58 nM.
Same read-out and setting: then `CC[C@H](C)[C@@H]1NC(=O)[C@@H](CCCN=C(N)N)NC(=O)CNC(=O)CNC(=O)[C@@H](C2CCCCC2)NC(=O)[C@H](NC(=O)[C@H](N)CCCN=C(N)N)CSSC[C@H](C(N)=O)NC(=O)[C@@H](CCCN=C(N)N)NC(=O)[C@H]2Cc3ccccc3CN2C(=O)[C@@H]([C@@H](C)CC)NC(=O)[C@H](CCCN=C(N)N)NC(=O)[C@@H](CC(=O)O)NC1=O`, with 96 nM.
As to `CC[C@H](C)[C@@H]1NC(=O)[C@@H](CCCN=C(N)N)NC(=O)CNC(=O)CNC(=O)[C@@H](Cc2ccccc2)NC(=O)[C@H](NC(=O)[C@H](N)CCCN=C(N)N)CSSC[C@H](C(=O)O)NC(=O)[C@@H](CCCN=C(N)N)NC(=O)[C@H](Cc2ccccc2)NC(=O)[C@@H]([C@@H](C)CC)NC(=O)[C@H](CCCN=C(N)N)NC(=O)[C@@H](CC(C)C)NC1=O`, the KL was 680 nM.
On the same count and under the same terms, then `CC(C)C[C@@H]1NC(=O)[C@@H](CCCN=C(N)N)NC(=O)CNC(=O)CNC(=O)[C@@H](Cc2ccccc2)NC(=O)[C@@H](C)NC(=O)[C@H](NC(=O)[C@H](CO)NC(=O)[C@@H](N)CO)CSSC[C@H](C(=O)N[C@H](Cc2ccccc2)C(=O)N[C@H](CCCN=C(N)N)C(=O)O)NC(=O)[C@@H](CC(C)C)NC(=O)[C@H](CCCN=C(N)N)NC(=O)[C@@H](CC(=O)O)NC1=O`, with 680 nM; and `CC[C@H](C)[C@@H]1NC(=O)[C@@H](CCCN=C(N)N)NC(=O)CNC(=O)CNC(=O)[C@@H](C2CCCCC2)NC(=O)CCSSC[C@H](C(N)=O)NC(=O)[C@H](CCCN=C(N)N)NC(=O)[C@H](Cc2ccccc2)NC(=O)[C@@H]([C@@H](C)CC)NC(=O)[C@H](CCCN=C(N)N)NC(=O)[C@@H](CC(=O)O)NC1=O`, with 380 nM.
Still for that read-out and setting: as for `CC[C@H](C)[C@H]1NC(=O)[C@H](CCCN=C(N)N)NC(=O)[C@@H](CC(=O)O)NC(=O)[C@H](Cc2ccccc2)NC(=O)[C@@H](CCCN=C(N)N)NC(=O)CNC(=O)CNC(=O)[C@@H](C2CCCCC2)NC(=O)[C@H](NC(=O)[C@H](N)CCCN=C(N)N)CSSC[C@H](C(N)=O)NC(=O)[C@@H](CCCN=C(N)N)NC(=O)[C@H](Cc2ccccc2)NC1=O`, the figure is 680 nM; as for `CC[C@H](C)[C@@H]1NC(=O)[C@@H](CCCN=C(N)N)NC(=O)CNC(=O)CNC(=O)[C@@H](C2CCCCC2)NC(=O)[C@H](NC(=O)[C@@H](CO)NC(=O)[C@H](N)CO)CSSC[C@H](C(=O)O)NC(=O)[C@@H](CCCN=C(N)N)NC(=O)[C@H](Cc2ccccc2)NC(=O)[C@@H]([C@@H](C)CC)NC(=O)[C@H](CCCN=C(N)N)NC(=O)[C@@H](CC(=O)O)NC1=O`, 160 nM; as for `CC[C@H](C)[C@@H]1NC(=O)[C@@H](CCCN=C(N)N)NC(=O)CNC(=O)CNC(=O)[C@@H](C2CCCCC2)NC(=O)[C@H](N)CSSC[C@H](C(N)=O)NC(=O)[C@@H](CCCN=C(N)N)NC(=O)[C@H](Cc2ccccc2)NC(=O)[C@@H](C)NC(=O)[C@H](CCCN=C(N)N)NC(=O)[C@@H](CC(=O)O)NC1=O`, 800 nM.
The compound `CC[C@H](C)[C@@H]1NC(=O)[C@@H](CCCN=C(N)N)NC(=O)CNC(=O)CNC(=O)[C@@H](C2CCCCC2)NC(=O)[C@H](NC(=O)[C@H](N)CCCN=C(N)N)CSSC[C@H](C(N)=O)NC(=O)[C@@H](CCCN=C(N)N)NC(=O)[C@H](Cc2ccccc2)NC(=O)[C@@H](C)NC(=O)[C@H](CCCN=C(N)N)NC(=O)[C@@H](CC(=O)O)NC1=O` yielded a KL of 230 nM.
Same read-out and setting: then `CC[C@H](C)[C@@H]1NC(=O)[C@@H](CCCN=C(N)N)NC(=O)CNC(=O)CNC(=O)[C@@H](C2CCCCC2)NC(=O)CCSSC[C@@H](C(N)=O)NC(=O)[C@@H](CCCN=C(N)N)NC(=O)[C@H](Cc2ccccc2)NC(=O)[C@@H]([C@@H](C)CC)NC(=O)[C@H](CCCN=C(N)N)NC(=O)[C@@H](CC(=O)O)NC1=O`, with 1900 nM.

For the origin of these results see ChEMBL document CHEMBL1125386, “Small atrial natriuretic peptide analogues: design, synthesis, and structural requirements for guanylate cyclase activation” (J Med Chem, 1992).
